Assay results taken from US10201542B2, “Formulations of pyrimidinedione derivative compounds” (AbbVie Inc., priority 2012, dated 2019).

Experiment: Solution-based crystallization study, in situ UV/Vis probe
Type: physicochemical
Conditions: absence of polymer (control); pH 6.8 buffer, start about 80 μg/mL, FIG. 13-A
Method: Several polymers (Kollidon VA64, HPMC E5, HPMC K3, PVP K30, and Vitamin E TPGS) were evaluated for their effectiveness in inhibiting or delaying precipitation of the free acid of Compound A through a solution-based mechanism. About 0.05 mL of a highly concentrated solution of Compound A monosodium salt monohydrate dissolved in dimethyl sulfoxide (16 mg/mL on a free acid equivalent weight basis) was added to 10 mL of pH 6.8 sodium phosphate buffer (50 mM phosphate with ionic strength adjusted to 0.155 M with sodium chloride) containing one of the polymers at one of […] different concentrations (0% (control), 0.001%, 0.01%, and 0.1% (weight polymer/volume buffer %)) to provide a supersaturated Compound A solution (about 80 μg/mL on a free acid equivalent weight basis). The supersaturated solution was continuously stirred at 300 rpm at ambient temperatures (about 26° C.) and the solution concentration was monitored for 30 minutes by an in situ UV/Vis dip probe (μDISS Profiler™, pION Inc, Woburn, Mass. 01801, USA) using an external standard.

concentration of Compound A in the solution after decrease: about 20 μg/mL
SMILES: COc1c(-c2ccc3cc(NS(C)(=O)=O)ccc3c2)cc(-n2ccc(=O)[nH]c2=O)cc1C(C)(C)C [Compound A, N-(6-(3-tert-butyl-5-(2,4-dioxo-3,4-dihydropyrimidin-1(2H)-yl)-2-methoxyphenyl)naphthalen-2-yl)methanesulfonamide]
